# According to patent US10793519B2, “Ultra short acting anti-arrhythmic agents” (Academic Pharmaceuticals Incorporated, priority 2018, dated 2020):
# Like-named read-outs stand apart in the source and are kept apart here.
# What was measured:
# [1] = target: hERG channel (Homo sapiens, UniProt Q12809); test: whole-cell voltage-clamp tail current / current density experiments in hERG-HEK cells
# Experimental: A set of whole-cell, voltage-clamp experiments was performed using a HEKA® EPC 9 amplifier. Data was recorded and analyzed using the HEKA® Patchmaster and Fitmaster software. At the time of the recordings, cell culture media was replaced by a bath solution (containing (mM): 137 NaCl, 4 KCl, 1.8 CaCl2, 10 HEPES, and 10 glucose, pH adjusted to 7.4 with NaOH). The pipette solution containing different concentrations of the drug to test was introduced. Borosilicate glass electrodes (tip resistant 2-5 MΩ) were filled with internal solution (containing (mM): 130 KCl, 1 MgCl2, 5 EGTA, 5 MgATP and 10 HEPES, pH adjusted to 7.2 with KOH). Tail currents were measured at repolarizing test potentials (−100 to +40 mV, 4 seconds each) following a one second depolarizing step to +60 mV from a holding potential of −80 mV. Cell recordings were performed in a minimum of 2 plates (3-5 cells/plate) for each EFV concentration and compared to control.
# In hERG-HEK cells that were transiently […] with CYP2B6*1 cDNA, tail current recordings were performed using the following 2-sweep voltage clamp protocol: membrane potential was held at −80 mV, increased to 60 mV (1 second), and currents were measured during two repolarizing steps at −100 and −20 mV (5 seconds each). This protocol was performed twice for each cell at 1 and 2 minutes following cytosolic access and exposure to the pipette solution to evaluate the influence of incubation time on drug mediated alterations in hERG channel conductivity. A sigmoidal Emax model was fit to the EFV inhibitory effect on 1hERG using Prism (GraphPad Software, Inc., La Jolla, Calif.).
# Sotalol ester, soestolol (ester A, Table 1, Example 1) and its corresponding acid (ester C) were evaluated. The studies were performed blinded with the operator unaware of the chemical structure of Ester A or Ester C.
# [2] = cited from earlier work
# Chain of hERG channel (Q12809 whole entry): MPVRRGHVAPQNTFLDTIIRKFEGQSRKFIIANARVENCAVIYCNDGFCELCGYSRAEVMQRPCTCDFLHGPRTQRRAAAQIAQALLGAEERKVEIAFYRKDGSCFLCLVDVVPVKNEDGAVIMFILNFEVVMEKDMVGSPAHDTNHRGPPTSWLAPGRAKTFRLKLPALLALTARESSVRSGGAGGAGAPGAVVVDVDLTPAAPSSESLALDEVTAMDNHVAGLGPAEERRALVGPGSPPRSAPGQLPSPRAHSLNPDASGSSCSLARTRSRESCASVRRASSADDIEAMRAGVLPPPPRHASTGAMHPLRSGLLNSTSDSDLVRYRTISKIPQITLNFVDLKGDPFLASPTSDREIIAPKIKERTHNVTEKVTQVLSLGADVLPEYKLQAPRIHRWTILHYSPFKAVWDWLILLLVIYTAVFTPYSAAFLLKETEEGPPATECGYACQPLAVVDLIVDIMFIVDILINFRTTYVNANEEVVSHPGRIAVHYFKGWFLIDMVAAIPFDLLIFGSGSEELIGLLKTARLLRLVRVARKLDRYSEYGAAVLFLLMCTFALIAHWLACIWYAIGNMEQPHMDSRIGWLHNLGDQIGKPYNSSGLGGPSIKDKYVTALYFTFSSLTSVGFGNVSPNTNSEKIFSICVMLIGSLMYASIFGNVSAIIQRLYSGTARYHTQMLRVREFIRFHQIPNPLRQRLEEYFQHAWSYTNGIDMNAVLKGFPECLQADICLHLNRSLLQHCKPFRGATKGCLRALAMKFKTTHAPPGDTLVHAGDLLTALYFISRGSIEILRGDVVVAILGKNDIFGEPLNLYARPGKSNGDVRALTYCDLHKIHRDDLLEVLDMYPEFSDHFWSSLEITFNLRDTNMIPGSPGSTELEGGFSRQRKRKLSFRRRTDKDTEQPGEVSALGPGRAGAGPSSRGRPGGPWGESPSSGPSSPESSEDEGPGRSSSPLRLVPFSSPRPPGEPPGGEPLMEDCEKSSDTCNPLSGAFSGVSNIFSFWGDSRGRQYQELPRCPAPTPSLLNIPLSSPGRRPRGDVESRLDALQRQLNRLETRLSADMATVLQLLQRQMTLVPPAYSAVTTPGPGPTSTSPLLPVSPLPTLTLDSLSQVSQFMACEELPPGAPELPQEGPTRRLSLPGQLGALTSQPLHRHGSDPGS
structure (smiles),measurement,setting,value
COC(=O)CS(=O)(=O)Nc1ccc(C(O)CNC(C)C)cc1 (stereo not drawn) [Ester A],"inhibition of K current (current density), FIG. 1",[1],dose dependent reduction in current
same,"potency on K current compared with sotalol, FIG. 1",[1],significantly more potent than the corresponding sotalol dose
CC(C)NCC(O)c1ccc(NS(=O)(=O)CC(=O)O)cc1 (stereo not drawn) [Ester C],"activity on current, FIG. 2",[1],no activity
CC(C)NCC(O)c1ccc(NS(C)(=O)=O)cc1 (stereo not drawn) [sotalol],half-life,"[2]; in man, on average",twelve
same,terminal elimination half-life,[2]; in vivo,10 to 20 h
same,"reduction in current, FIG. 2",[1]; 5 μM,dose related reduction in current
same,"reduction in current, FIG. 2",[1]; 50 μM,dose related reduction in current
same,"inhibition of K current (current density), FIG. 1",[1]; 5 μm,reduction in current
same,"inhibition of K current (current density), FIG. 1",[1]; 10 μm,further reduction
